≈ marks a conversion by molar mass, not a printed value.
Columns and labels:
[1] = test system: P. aeruginosa PAO1 and efflux deficient mutants, MDR/XDR isolates; assay: microbe, parasite or virus in culture; format: cell-based, Pseudomonas aeruginosa
Procedure: Antimicrobial Susceptibility Assay. The in vitro antimicrobial activity of all compounds/antibiotics against a panel of bacteria was evaluated by microbroth dilution method in accordance with the Clinical and Laboratory Standards Institute (CLSI) guidelines (using ATCC strains as quality control strains) (54). […] The broth with or without bacterial cells was used as positive or negative control, respectively.

P. aeruginosa = assay: Checkerboard assay (antibiotic + adjuvant combination MIC); format: cell-based, Pseudomonas aeruginosa; conditions: compound at 8 μM
[2] = test system: panel of Gram-positive and Gram-negative bacteria; assay: Antimicrobial susceptibility assay against a panel of bacteria; format: cell-based; conditions: some isolates
Procedure: Antimicrobial Susceptibility Assay. The in vitro antimicrobial activity of all compounds/antibiotics against a panel of bacteria was evaluated by microbroth dilution method in accordance with the Clinical and Laboratory Standards Institute (CLSI) guidelines (using ATCC strains as quality control strains) (54). Overnight grown bacterial cultures were diluted in saline to achieve a 0.5 McFarland turbidity, followed by 1:50 dilution in Mueller-Hinton broth (MHB) for inoculation to a final concentration of approximately 5×10^5 CFU/mL. […] The lowest concentration that prevented the visible growth of bacteria was defined as the MIC for each antimicrobial agent. The broth with or without bacterial cells was used as positive or negative control, respectively.

N=C(N)NC[C@H]1O[C@H](O[C@H]2[C@H](OCCCCCCCCCCCCN3CCN(c4cc5c(cc4F)c(=O)c(C(=O)O)cn5C4CC4)CC3)[C@@H](O[C@H]3O[C@H](CO)[C@@H](O)[C@H](NC(=N)N)[C@H]3O)[C@H](NC(=N)N)C[C@@H]2NC(=N)N)[C@H](NC(=N)N)C[C@@H]1O [Compound 27, Guanidinylated Tobramycin-Ciprofloxacin Conjugate]
MIC ([1]; PA0750 (efflux-deficient)): 2 µg/mL (≈ 1.7 µM) | MIC ([1]; PAO1 (wild-type)): 32 µg/mL (≈ 27.2 µM) | MIC ([1]; PAO200 (second column so headed)): 16 µg/mL (≈ 13.6 µM) | MIC of Aztreonam + compound (P. aeruginosa; P. aeruginosa PAO1): 0.5 µg/mL | MIC of Ceftazidime + compound (P. aeruginosa; P. aeruginosa PAO1): 0.25 µg/mL | MIC of Imipenem + compound (P. aeruginosa; P. aeruginosa PAO1): 1 µg/mL | MIC of Piperacillin + compound (P. aeruginosa; P. aeruginosa PAO1): 8 µg/mL | MIC of ATM in the presence of compound (P. aeruginosa; PA 259-96918): 32 µg/mL | MIC of CAZ in the presence of compound (P. aeruginosa; PA 259-96918): 512 µg/mL | MIC of IPM in the presence of compound (P. aeruginosa; PA 259-96918): 64 µg/mL | MIC of ATM in the presence of compound (P. aeruginosa; PA 260-97103): 8 µg/mL | MIC of CAZ in the presence of compound (P. aeruginosa; PA 260-97103): 16 µg/mL | MIC of IPM in the presence of compound (P. aeruginosa; PA 260-97103): 8 µg/mL | MIC of ATM in the presence of compound (P. aeruginosa; PA 262-101856): 32 µg/mL | MIC of CAZ in the presence of compound (P. aeruginosa; PA 262-101856): 16 µg/mL | MIC of IPM in the presence of compound (P. aeruginosa; PA 262-101856): 16 µg/mL | MIC of ATM in the presence of compound (P. aeruginosa; PA 264-104354): 32 µg/mL | MIC of CAZ in the presence of compound (P. aeruginosa; PA 264-104354): 128 µg/mL | MIC of IPM in the presence of compound (P. aeruginosa; PA 264-104354): 16 µg/mL | MIC of ATM in the presence of compound (P. aeruginosa; PA 86052): 32 µg/mL | MIC of CAZ in the presence of compound (P. aeruginosa; PA 86052): 32 µg/mL | MIC of IPM in the presence of compound (P. aeruginosa; PA 86052): 16 µg/mL | MIC of ATM in the presence of compound (P. aeruginosa; PA 88949): 32 µg/mL | MIC of CAZ in the presence of compound (P. aeruginosa; PA 88949): 32 µg/mL | MIC of IPM in the presence of compound (P. aeruginosa; PA 88949): 64 µg/mL | MIC of ATM in the presence of compound (P. aeruginosa; PA 91433): 16 µg/mL | MIC of CAZ in the presence of compound (P. aeruginosa; PA 91433): 4 µg/mL | MIC of IPM in the presence of compound (P. aeruginosa; PA 91433): 8 µg/mL | MIC of ATM in the presence of compound (P. aeruginosa; PA 100036): 16 µg/mL | MIC of CAZ in the presence of compound (P. aeruginosa; PA 100036): 6 µg/mL | MIC of IPM in the presence of compound (P. aeruginosa; PA 100036): 4 µg/mL | MIC of ATM in the presence of compound (P. aeruginosa; PA 101243): 4 µg/mL | MIC of CAZ in the presence of compound (P. aeruginosa; PA 101243): 16 µg/mL | MIC of IPM in the presence of compound (P. aeruginosa; PA 101243): 4 µg/mL | MIC of ATM in the presence of compound (P. aeruginosa; PA 101885): 4 µg/mL | MIC of CAZ in the presence of compound (P. aeruginosa; PA 101885): 2 µg/mL | MIC of IPM in the presence of compound (P. aeruginosa; PA 101885): 2 µg/mL | MIC of ATM in the presence of compound (P. aeruginosa; PA 107092): 32 µg/mL | MIC of CAZ in the presence of compound (P. aeruginosa; PA 107092): 32 µg/mL | MIC of IPM in the presence of compound (P. aeruginosa; PA 107092): 32 µg/mL | MIC of ATM in the presence of compound (P. aeruginosa; PA 108590): 2 µg/mL | MIC of CAZ in the presence of compound (P. aeruginosa; PA 108590): 2 µg/mL | MIC of IPM in the presence of compound (P. aeruginosa; PA 108590): 4 µg/mL | MIC of ATM in the presence of compound (P. aeruginosa; PA 109084): 32 µg/mL | MIC of CAZ in the presence of compound (P. aeruginosa; PA 109084): 32 µg/mL | MIC of IPM in the presence of compound (P. aeruginosa; PA 109084): 16 µg/mL | MIC of ATM in the presence of compound (P. aeruginosa; PA 114228): 8 µg/mL | MIC of CAZ in the presence of compound (P. aeruginosa; PA 114228): 2 µg/mL | MIC of IPM in the presence of compound (P. aeruginosa; PA 114228): 1 µg/mL | MIC of ATM in the presence of compound (P. aeruginosa; PA O200 (efflux-deficient)): 0.06 µg/mL | MIC of CAZ in the presence of compound (P. aeruginosa; PA O200 (efflux-deficient)): 0.25 µg/mL | MIC of IPM in the presence of compound (P. aeruginosa; PA O200 (efflux-deficient)): 2 µg/mL | MIC of ATM in the presence of compound (P. aeruginosa; PA O750 (efflux-deficient)): 0.06 µg/mL | MIC of CAZ in the presence of compound (P. aeruginosa; PA O750 (efflux-deficient)): 0.25 µg/mL | MIC of IPM in the presence of compound (P. aeruginosa; PA O750 (efflux-deficient)): 1 µg/mL | MIC of ATM in the presence of compound (P. aeruginosa; PAO1): 0.5 µg/mL | MIC of CAZ in the presence of compound (P. aeruginosa; PAO1): 0.25 µg/mL | MIC of IPM in the presence of compound (P. aeruginosa; PAO1): 1 µg/mL | intrinsic antimicrobial activity [2]: some modest residual activity
